Experimental findings from publication PMC8086025, “A benzopyran with antiarrhythmic activity is an inhibitor of Kir3.1-containing potassium channels” (The Journal of Biological Chemistry, 2021) are described below.

“And” between values parts separate entries of the source, which are not always exact repeats. Identical values can stand only once. “Also recorded” adds a separate entry of the source.

The target in one assay is T1, Kir3.1(E141A)/4 (Homo sapiens, UniProt P48544+P48549, E141A).
T1 construct: expressed in transfected cells; host or cells: Xenopus laevis oocytes (cRNA injection)
The experiment in a line: TEVC in Xenopus oocytes, Kir3.1(E141A)/4. The format is cell-based. As to conditions: 1 μM.

A further assay deals with Kir3.1(E141A/D173A) (Homo sapiens, UniProt P48544+P48549, D173A/E141A). The format is cell-based. Particulars: 1 μM, TEVC.
In a further assay the target is Kv1.5 (Homo sapiens, UniProt P22460). Nature of the assay: Cloned cardiac ion channel manual patch clamp, Kv1.5. As to conditions: MPC (manual patch clamp). The format is cell-based. On the procedure: (§1) For the data shown in Table S6, HEK293 cells expressing Kir3.1/4, Kir6.2/SUR2A (provided by Dr Andrew Tinker), Kir3.4, Kir2.1, and CHO cell lines stably expressing hERG KV1.5, KV4.3, NaV1.5 were maintained in media containing 10% FCS and appropriate selection antibiotic. Cells were grown either in suspension or in T-flasks and routinely passaged. Cells for patch clamping experiments were plated onto glass cover slips prior to use. Cells for automated patch clamping experiments were freshly prepared on each experimental day.
(§2) Standard giga-seal whole-cell patch-clamp techniques were performed at room temperature using glass pipettes (2–5 MΩ). HEKA EPC9/10 amplifiers and Pulse software were used for data acquisition. Series resistance was compensated by >70%. Experimental solutions are given under Supporting information. […]
(§3) Ionic current recordings were analyzed using HEKA software. […]
(§4) Inhibition of current (or leak-subtracted current) was calculated from steady-state current recorded in the absence (IControl) and presence of test-article (IIntervention). […]
(§5) Concentration-response data were fitted with a sigmoidal function of the form above, where YMin and YMax represent maximum and minimum current inhibition which were constrained to 100 and 0 respectively and x is the Log[DRUG (M)] based on GraphPad Prism analysis. % inhibition was calculated as in Equation 1. […]
(In general: The patch-clamp technique gives a direct electrical read-out from membranes.)

The target of a further assay is Kv4.3 (Homo sapiens, UniProt Q9UK17). Nature of the assay: Cloned cardiac ion channel patch clamp, Kv4.3. The format is cell-based. On the procedure: as §1, §2, §3, §4, §5
The target of a further assay is T2, Adenosine A1 (Homo sapiens, UniProt P30542).
T2 construct: expressed in transfected cells; host or cells: CHO cells
The experiment in a line: Radioligand binding, [3H]DPCPX. Particulars: read-out: % Specific Binding at 10 µM.

Another assay addresses T3, Histamine H2 (Homo sapiens, UniProt P25021).
T3 construct: expressed in transfected cells; host or cells: CHO cells
The experiment in a line: Radioligand binding, [125I]APT. Particulars: read-out: % Specific Binding at 10 µM.

Another assay concerns sigma (non-selective). The experiment in a line: Radioligand binding, [3H]DTG, Jurkat cells (endogenous). Particulars: listed as Benzopyran-G1.
The next assay has as its system Ca. Nature of the assay: Radioligand binding. As to conditions: listed as Benzopyran-G1.

Sequence of Kir3.1(E141A/D173A) (P48549 whole entry E141A/D173A): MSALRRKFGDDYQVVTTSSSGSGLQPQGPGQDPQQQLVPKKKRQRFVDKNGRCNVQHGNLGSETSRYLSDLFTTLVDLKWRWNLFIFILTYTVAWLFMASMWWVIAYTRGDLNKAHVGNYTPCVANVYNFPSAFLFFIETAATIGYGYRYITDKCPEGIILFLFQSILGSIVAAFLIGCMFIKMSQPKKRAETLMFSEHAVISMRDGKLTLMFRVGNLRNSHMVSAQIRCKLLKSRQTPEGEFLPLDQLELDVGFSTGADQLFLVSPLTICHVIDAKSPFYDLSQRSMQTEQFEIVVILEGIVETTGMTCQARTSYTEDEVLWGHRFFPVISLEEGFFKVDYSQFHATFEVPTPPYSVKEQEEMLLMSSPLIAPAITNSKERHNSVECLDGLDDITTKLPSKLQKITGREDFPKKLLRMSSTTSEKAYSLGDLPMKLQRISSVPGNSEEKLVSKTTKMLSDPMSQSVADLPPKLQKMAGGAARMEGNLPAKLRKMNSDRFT
Sequence of Kir3.1(E141A/D173A) (P48544 whole entry): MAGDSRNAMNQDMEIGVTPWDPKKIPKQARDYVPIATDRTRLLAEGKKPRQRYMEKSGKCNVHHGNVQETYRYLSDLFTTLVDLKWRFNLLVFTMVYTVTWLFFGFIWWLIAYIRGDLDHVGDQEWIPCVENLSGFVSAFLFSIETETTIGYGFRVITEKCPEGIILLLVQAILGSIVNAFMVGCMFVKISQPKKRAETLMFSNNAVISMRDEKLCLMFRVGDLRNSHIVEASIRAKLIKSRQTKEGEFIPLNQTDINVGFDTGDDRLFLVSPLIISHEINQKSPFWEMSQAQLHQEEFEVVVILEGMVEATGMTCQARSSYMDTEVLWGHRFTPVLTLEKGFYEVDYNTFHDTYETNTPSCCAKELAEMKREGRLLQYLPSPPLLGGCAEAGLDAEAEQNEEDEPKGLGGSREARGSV
Sequence of Kv4.3 (Q9UK17 whole entry): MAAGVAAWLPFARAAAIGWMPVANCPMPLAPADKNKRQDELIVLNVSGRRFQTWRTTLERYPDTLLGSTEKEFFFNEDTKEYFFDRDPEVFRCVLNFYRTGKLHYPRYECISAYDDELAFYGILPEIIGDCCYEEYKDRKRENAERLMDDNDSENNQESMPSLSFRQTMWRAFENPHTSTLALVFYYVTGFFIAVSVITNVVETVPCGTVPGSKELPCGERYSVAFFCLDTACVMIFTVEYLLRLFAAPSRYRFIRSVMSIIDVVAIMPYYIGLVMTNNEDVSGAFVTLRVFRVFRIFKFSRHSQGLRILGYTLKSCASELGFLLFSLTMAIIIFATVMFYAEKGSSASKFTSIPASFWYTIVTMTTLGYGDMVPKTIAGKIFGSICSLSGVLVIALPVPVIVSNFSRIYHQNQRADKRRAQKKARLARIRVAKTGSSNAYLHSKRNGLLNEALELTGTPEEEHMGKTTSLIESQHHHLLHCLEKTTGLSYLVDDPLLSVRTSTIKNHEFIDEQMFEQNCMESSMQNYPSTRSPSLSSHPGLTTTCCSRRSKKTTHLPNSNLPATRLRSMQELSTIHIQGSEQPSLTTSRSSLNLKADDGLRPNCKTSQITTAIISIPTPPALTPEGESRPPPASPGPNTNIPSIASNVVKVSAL
Sequence of Kv1.5 (P22460 whole entry): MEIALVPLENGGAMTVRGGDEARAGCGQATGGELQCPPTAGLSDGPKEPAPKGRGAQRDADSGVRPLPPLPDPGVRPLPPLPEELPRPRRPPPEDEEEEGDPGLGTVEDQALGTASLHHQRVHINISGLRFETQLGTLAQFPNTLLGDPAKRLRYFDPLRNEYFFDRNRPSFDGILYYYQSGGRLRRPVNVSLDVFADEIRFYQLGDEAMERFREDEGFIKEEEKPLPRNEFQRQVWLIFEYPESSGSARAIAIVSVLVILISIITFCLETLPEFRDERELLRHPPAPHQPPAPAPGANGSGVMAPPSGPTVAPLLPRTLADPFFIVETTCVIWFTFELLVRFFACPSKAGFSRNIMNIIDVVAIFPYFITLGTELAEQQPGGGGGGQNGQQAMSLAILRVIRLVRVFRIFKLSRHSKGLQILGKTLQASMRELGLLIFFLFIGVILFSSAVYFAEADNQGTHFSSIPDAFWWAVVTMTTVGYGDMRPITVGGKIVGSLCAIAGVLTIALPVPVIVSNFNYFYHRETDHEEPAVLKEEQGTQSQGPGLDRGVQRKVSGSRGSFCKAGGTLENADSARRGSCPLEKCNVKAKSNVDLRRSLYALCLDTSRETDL
T3 sequence (P25021 whole entry): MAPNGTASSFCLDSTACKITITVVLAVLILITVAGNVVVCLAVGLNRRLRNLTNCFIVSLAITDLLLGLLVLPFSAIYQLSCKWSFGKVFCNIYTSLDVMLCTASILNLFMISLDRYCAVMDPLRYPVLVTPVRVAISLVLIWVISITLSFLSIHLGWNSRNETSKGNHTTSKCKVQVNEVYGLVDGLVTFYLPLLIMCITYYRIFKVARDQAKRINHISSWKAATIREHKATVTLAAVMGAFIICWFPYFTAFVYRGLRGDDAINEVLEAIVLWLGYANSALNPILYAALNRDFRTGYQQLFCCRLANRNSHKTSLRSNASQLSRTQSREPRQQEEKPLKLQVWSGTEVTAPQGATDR
T1 sequence (P48549 whole entry E141A): as the sequence (P48549 whole entry E141A/D173A) above, with A173D counted along it
T1 sequence (P48544 whole entry): as the sequence (P48544 whole entry) above
T2 sequence (P30542 whole entry): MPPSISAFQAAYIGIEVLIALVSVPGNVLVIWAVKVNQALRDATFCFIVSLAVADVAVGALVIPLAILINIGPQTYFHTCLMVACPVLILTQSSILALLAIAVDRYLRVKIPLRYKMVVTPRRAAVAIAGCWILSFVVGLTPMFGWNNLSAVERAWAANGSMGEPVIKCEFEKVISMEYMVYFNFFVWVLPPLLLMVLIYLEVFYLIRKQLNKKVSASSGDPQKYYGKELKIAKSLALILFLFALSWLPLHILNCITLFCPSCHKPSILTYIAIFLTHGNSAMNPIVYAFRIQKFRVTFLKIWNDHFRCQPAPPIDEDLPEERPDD

As usually defined, the IC50 is the concentration at which inhibition is half-maximal. On to `Cc1cc(CO)nc2cc3c(cc12)OC(C)(C)[C@H](O)[C@H]3NCCc1ccccc1` [BP-G1, (3R,4S)-7-(hydroxymethyl)-2,2,9-trimethyl-4-(2-phenylethylamino)-3,4-dihydropyrano[2,3-g]quinolin-3-ol], for which the “current block, Kir3.1(E141A)/4” value on Kir3.1(E141A)/4 is given as 25%. The “current block, Kir3.1(E141A/D173A)” value on Kir3.1(E141A/D173A) is “abolished any current block; also recorded: abolished the block”. For the same compound, the IC50 worked out at 16.3 µM at Kv1.5 and 11.3 µM against Kv4.3. Also, the inhibition at 10 µM at Adenosine A1 stood at 38.4%; on Histamine H2 it was 35.5%. For the same compound, the “% Specific Binding at 10 µM” value in the assay with sigma (non-selective) is 40.267% and < 50%; with Ca it was 42.600% and < 50%.
